From US12281329B2, “Compositions and methods for immune cell modulation in adoptive immunotherapies” (Fate Therapeutics, Inc., priority 2016, dated 2025)
Structures can show the parent of a compound that is named as a salt.

Tested on: T cells
Assay: In vitro T cell culture compound screen, flow cytometry for CCR7+CD62L+ cells
Type: cell-based, human
Conditions: for CD4 Hit / CD8 Hit: 10 μM, about 6 days, anti-CD3/anti-CD28 beads, viability and cell number Z-score > −1; for CD4 Hit: hit: Z-score > +2 for percent or relative number CCR7+CD62L+ in viable CD4+; for CD8 Hit: hit: Z-score > +2 for percent or relative number CCR7+CD62L+ in viable CD8+
From the text: In Vitro T Cell Culture. Fresh leukopaks (AllCells, Alameda, CA) were obtained from healthy donors, from which T cells were negatively selected using the EasySep Human T cell Enrichment Kit (Stem Cell Technologies, Vancouver, Canada). The freshly isolated T cells were aliquoted and cryopreserved. On the day the screens were initiated, T cells were thawed and washed into X-Vivo 15 with 5% human AB serum, IL-2, pen/strep, and additional supplements. Cells were dispensed into flat-bottom 384-well plates at 5×10^5 cells/ml with anti-CD3/Anti-CD28 dynabeads (ThermoFisher, Waltham, MA) at a 3:1 bead-to-cell ratio. Individual compounds were added at a final concentration of 10 μM to each well from column 3 to column 22 of each plate. Positive and negative controls were added to additional wells. Cells were incubated for about 6 days at 37 degrees with 5% CO2.
Flow Cytometry. On Day 6 of culture, cells were stained with a fixable viability marker and fluorophore-conjugated antibodies: CD3, CD4, CD8, CD45RA, CD45RO, CD62L, CCR7, CD27, and CD122 (BD Biosciences, San Jose, CA; and BioLegend, San Diego, CA). Fluorescent absolute counting beads (Spherotech, Lake Forest, IL) were added just prior to acquisition. Data acquisition was performed on a BD Fortessa X-20 (BD Biosciences) and data were analyzed using Treestar software (FlowJo, Ashland, OR) and Spotfire (Tibco, Boston, MA).
These cells are characterized by expression of CCR7 and CD62L. Therefore, cells co-expressing both of these identifying markers were evaluated. Within the viable CD4+ population and viable CD8+ population, the percent of cells co-expressing CCR7 and CD62L was determined. The expression of either CD62L or CCR7 on T cells, as indicative of the desired T cell subsets, have been described as having favorable functional characteristics for CAR-T cell therapy, and potentially other adoptive T cell therapies.
The number of events in each of these gates relative to the number of absolute counting beads in each sample was calculated, defining a relative measure of the absolute number of naïve, stem cell memory, or central memory T cells within the CD4+ and/or CD8+ populations. A z-Score relative to the screened compound samples within each 384-well plate was calculated for each of these four values: 1) percent CCR7+CD62L+ in CD4+, 2) percent CCR7+CD62L+ in CD8+, 3) absolute relative number of CCR7+CD62L+ in CD4+, and 4) absolute relative number of CCR7+CD62L+ in CD8+(FIGS. 1A and 1B). Z-scores were also calculated for the percent viability of all cells within each sample and the relative absolute number of cells within each sample. A “Z-Score” is a statistical measurement of a score's relationship to the mean in a group of scores. AZ-score of 0 means the score is the same as the mean. AZ-score can also be positive or negative, indicating whether it is above or below the mean and by how many standard deviations.

[1] = at least in viable CD8+ population
[2] = in both viable CD4+ population and viable CD8+ population

Compound	CD4 Hit	number or ratio of cells co-expressing CCR7 and CD62L [1]	CD8 Hit	number or ratio of cells co-expressing CCR7 and CD62L [2]
C=CC1=C(C)c2cc3[nH]c(cc4nc(cc5[nH]c(cc1n2)c(C)c5CCC(=O)O)C(CCC(=O)O)=C4C)c(C)c3C=C [Protoporphyrin IX disodium]	CD4	increased	–	–
COc1cc2nc(N3CCCN(C)CC3)nc(NC3CCN(Cc4ccccc4)CC3)c2cc1OC [BIX01294]	CD4	increased	–	–
NC1CCN(c2nc3c(cc2F)c(=O)c(C(=O)O)cn3-c2ccc(F)cc2F)C1 (centres unmarked) [Tosufloxacin hydrochloride]	CD4	increased	–	–
CCCc1c(-c2ccc(O)cc2)nn(-c2ccc(O)cc2)c1-c1ccc(O)cc1 [1,3,5-tris(4-hydroxyphenyl)-4-propyl-1H-pyrazole]	CD4	increased	–	–
Oc1cccc(-c2nc(N3CCOCC3)c3oc4ncccc4c3n2)c1 [PI-103]	CD4	–	CD8	–
CC[N+](C)(C)c1cccc(O)c1 [Edrophonium chloride]	–	increased	CD8	–
CC(C)(C)c1ccc(C(O)CCCN2CCC(C(O)(c3ccccc3)c3ccccc3)CC2)cc1 (centres unmarked) [Terfenadine]	CD4	increased	–	–
C/C=C(/C)C(=O)O[C@H]1C(C)=C2[C@H]([C@@H]1OC(=O)CCCCCCC)[C@@](C)(OC(C)=O)C[C@H](OC(=O)CCC)[C@@]1(O)[C@H]2OC(=O)[C@@]1(C)O [Thapsigargin]	–	increased	CD8	–
Nc1ncn([C@@H]2O[C@H](CO)[C@@H](O)[C@H]2O)c(=O)n1 [5-Azacytidine]	CD4	–	CD8	increased
C=CCc1cccc(/C=N/NC(=O)CN2CCN(Cc3ccccc3)CC2)c1O [PAC-1]	CD4	increased	–	–
Oc1c(Cl)cc(Cl)c2cccnc12 [8-Quinolinol, 5,7-dichloro-]	CD4	–	CD8	increased
2-Naphthacenecarboxamide, 7-chloro-4-(dimethylamino)-1,4,4a,5,5a,6,11,12a-octahy	–	increased	CD8	–
Oc1c(I)cc(Cl)c2cccnc12 [8-Quinolinol, 5-chloro-7-iodo-]	CD4	–	CD8	increased
Diethylenetriaminepentaacetic acid, penta sodium	CD4	–	CD8	increased
CC[n+]1c(/C=C/C=C2/N(C)c3ccccc3C2(C)C)sc2ccccc21.[I-] [AC-93253 iodide]	CD4	–	CD8	increased
CCC(CO)Nc1nc(NCc2ccccc2)c2ncn(C(C)C)c2n1 (stereo in doubt) [Roscovitine, (S)-Isomer]	CD4	increased	–	–
CC(C)C1CCC2(CO2)C2C(=O)OCC(C(=O)O)=CC12 (centres unmarked) [Heptelidic acid]	CD4	–	CD8	increased
C[C@]12CC[C@@H]3c4ccc(O)cc4C[C@@H](CCCCCCCCC[S+]([O-])CCCC(F)(F)C(F)(F)F)[C@H]3[C@@H]1CC[C@@H]2O (some centres unmarked) [Fulvestrant]	–	increased	CD8	–
O=C(N/N=C/c1ccc([N+](=O)[O-])o1)c1ccc(O)cc1 [Nifuroxazide]	–	increased	CD8	–
O=C(O)Cc1cc(I)c(Oc2ccc(O)c(I)c2)c(I)c1 [Tiratricol]	CD4	–	CD8	increased
N#CC(=C(/N)Sc1ccccc1N)/C(C#N)=C(\N)Sc1ccccc1N [U0126]	CD4	increased	–	–
COc1ccc(-c2cc3nccn3c(Nc3ncccc3C(N)=O)n2)cc1OC [BAY 61-3606]	CD4	increased	–	–
CN[C@H]1CC[C@@H](c2ccc(Cl)c(Cl)c2)c2ccccc21 [Sertraline]	CD4	–	CD8	–
CCCc1nc2c(C)cc(-c3nc4ccccc4n3C)cc2n1Cc1ccc(-c2ccccc2C(=O)O)cc1 [Telmisartan]	CD4	increased	–	–
CN(C)c1ccc(C=C2C(=O)Nc3ccccc32)cc1 [SU 4312]	–	increased	CD8	–
N.S=C(S)N1CCCC1 [1-Pyrrolidinecarbodithioic acid, ammonium salt]	CD4	increased	–	–
Sc1ncnc2nc[nH]c12 [6-Mercaptopurine]	CD4	–	CD8	increased
